US20240226310A1, “Lipid Nanoparticle Therapeutics that Evade the Immune Response” (The Trustees of the University of Pennsylvania, priority 2021, published 2024)

Tested on: pro-inflammatory cytokines
Experiment: Pro-inflammatory cytokines in systemic mouse model of inflammation (IV-LPS)
Type: in vivo, mice
[1] = removal of macrophages, LPS-treated mice which received LNP-mRNAs

With `O=P(O)(O)C(Cl)(Cl)P(=O)(O)O` [Clodronate] the systemic pro-inflammatory cytokines/markers (IV treatment, LPS model of systemic inflammation) was “reduces systemic pro-inflammatory markers”, the IL-6 in blood [1] was “significantly lowered” and the “MIP-2 in liver homogenate” value [1] was “significantly lowered”.
